A value given as a limit tells only on which side of the number the result lay.

One assay has as its target prolyl oligopeptidase (Ovis aries, UniProt A0ACI6PCU6). Kind of assay: Specificity of apstatin: prolyl oligopeptidase. It counts as biochemical. Particulars: purified, lamb kidney; Bk, pH 6.8, HPLC-1. From the text:
Enzymes--Membrane-bound aminopeptidase P was purified to homogeneity from bovine lung (14) and from rat lung. Partially purified membrane-bound aminopeptidase P from human lung was obtained by treatment of lung microsomes with phosphatidylinositol-specific phospholipase C (B. thuringiensis) (ICN, Costa Mesa, Calif.) followed by centrifugation as described previously (14). Membrane dipeptidase was purified from rat lung microsomes (manuscript in preparation). Recombinant E. coli aminopeptidase P (22) and purified lamb kidney prolyl oligopeptidase (23) were generally supplied by Dr. Tadashi Yoshimoto (Nagasaki University). Purified porcine kidney prolidase and purified porcine kidney aminopeptidase M was obtained from Sigma (St. Louis, Mo.).
(§1) Specificity of Apstatin--Apstatin was assayed for its ability to inhibit several other peptidases. […] Unless otherwise indicated, the source of each enzyme activity was a detergent extract of bovine lung prepared as described in (12-13). Activities were determined by a modification of the fluorescent assay described above (indicated by "FLUO") or by HPLC separation and quantitation of reaction products using the method described in (12) (method "HPLC-1") or the method described below (method "HPLC-2"). […]

The target in assay [1] is T1, aminopeptidase M (EC 3.4.11.2) (Sus scrofa, UniProt P15145).
T1 construct: Purified porcine kidney prolidase and purified porcine kidney aminopeptidase M was obtained from Sigma; purchased Sigma (St. Louis, Mo.); host or cells: porcine kidney
T1 sequence (P15145 1-963): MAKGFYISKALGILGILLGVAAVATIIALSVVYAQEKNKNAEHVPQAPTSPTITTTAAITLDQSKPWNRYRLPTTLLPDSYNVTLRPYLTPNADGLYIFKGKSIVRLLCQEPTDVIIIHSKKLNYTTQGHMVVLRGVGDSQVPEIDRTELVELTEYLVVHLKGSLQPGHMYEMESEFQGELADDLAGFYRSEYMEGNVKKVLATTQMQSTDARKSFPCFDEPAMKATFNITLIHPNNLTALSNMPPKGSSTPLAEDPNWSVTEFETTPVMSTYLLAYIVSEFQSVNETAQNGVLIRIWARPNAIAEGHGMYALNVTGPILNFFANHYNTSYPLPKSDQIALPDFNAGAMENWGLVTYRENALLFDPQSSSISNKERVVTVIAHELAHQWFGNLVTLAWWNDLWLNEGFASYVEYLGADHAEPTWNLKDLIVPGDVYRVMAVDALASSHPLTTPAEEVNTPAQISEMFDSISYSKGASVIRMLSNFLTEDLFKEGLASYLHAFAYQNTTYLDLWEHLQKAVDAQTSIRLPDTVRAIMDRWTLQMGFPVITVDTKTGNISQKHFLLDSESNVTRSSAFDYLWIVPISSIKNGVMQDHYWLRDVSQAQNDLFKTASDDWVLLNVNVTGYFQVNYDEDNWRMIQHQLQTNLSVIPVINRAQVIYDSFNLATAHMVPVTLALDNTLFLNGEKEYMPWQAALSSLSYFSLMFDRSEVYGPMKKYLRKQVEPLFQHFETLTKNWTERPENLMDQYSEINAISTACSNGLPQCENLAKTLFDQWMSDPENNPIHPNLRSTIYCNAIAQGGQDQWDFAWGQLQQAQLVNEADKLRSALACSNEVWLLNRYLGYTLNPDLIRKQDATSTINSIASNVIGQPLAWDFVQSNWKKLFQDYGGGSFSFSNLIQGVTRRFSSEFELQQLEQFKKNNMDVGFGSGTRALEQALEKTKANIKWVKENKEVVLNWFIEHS
As to the kind of experiment: Specificity of apstatin: aminopeptidase M. The format is biochemical. Particulars: purified, porcine kidney; Ala-β-NA, pH 6.8, FLUO. Here is the method:
as §1

Assay [2] has as its target bestatin-sensitive/amastatin-insensitive membrane dipeptidase. Kind of assay: Specificity of apstatin: bestatin-sensitive/amastatin-insensitive membrane dipeptidase. The conditions noted are these: bovine lung microsomes; Arg-Trp, pH 6.8, FLUO. The format is biochemical. How it is done:
as §1

Assay [3] deals with blood pressure response to Bk. Kind of assay: Blood pressure response to intravenous bradykinin in the rat. Particulars: rats; intravenously, administered over a one hour period. The format is in vivo. How it is done:
While aminopeptidase P appears to be quantitatively less important than ACE, there is now evidence that aminopeptidase P is nevertheless a physiologically important regulator of the blood pressure response to Bk in the rat (15,41). […] Thus, aminopeptidase P appears to play a significant role in the pulmonary degradation of Bk.
See e.g., Table 2. […] A typical therapeutically effective dose of a compound of the present invention is from about 0.008 mg/kg to 8.0 mg/kg, when given intravenously.

For assay [4], the target named is T2, dipeptidyl-peptidase IV (EC 3.4.14.5) (Bos taurus, UniProt P81425).
T2 construct: Unless otherwise indicated, the source of each enzyme activity was a detergent extract of bovine lung; from tissue; host or cells: detergent extract of bovine lung
T2 sequence (P81425 whole entry): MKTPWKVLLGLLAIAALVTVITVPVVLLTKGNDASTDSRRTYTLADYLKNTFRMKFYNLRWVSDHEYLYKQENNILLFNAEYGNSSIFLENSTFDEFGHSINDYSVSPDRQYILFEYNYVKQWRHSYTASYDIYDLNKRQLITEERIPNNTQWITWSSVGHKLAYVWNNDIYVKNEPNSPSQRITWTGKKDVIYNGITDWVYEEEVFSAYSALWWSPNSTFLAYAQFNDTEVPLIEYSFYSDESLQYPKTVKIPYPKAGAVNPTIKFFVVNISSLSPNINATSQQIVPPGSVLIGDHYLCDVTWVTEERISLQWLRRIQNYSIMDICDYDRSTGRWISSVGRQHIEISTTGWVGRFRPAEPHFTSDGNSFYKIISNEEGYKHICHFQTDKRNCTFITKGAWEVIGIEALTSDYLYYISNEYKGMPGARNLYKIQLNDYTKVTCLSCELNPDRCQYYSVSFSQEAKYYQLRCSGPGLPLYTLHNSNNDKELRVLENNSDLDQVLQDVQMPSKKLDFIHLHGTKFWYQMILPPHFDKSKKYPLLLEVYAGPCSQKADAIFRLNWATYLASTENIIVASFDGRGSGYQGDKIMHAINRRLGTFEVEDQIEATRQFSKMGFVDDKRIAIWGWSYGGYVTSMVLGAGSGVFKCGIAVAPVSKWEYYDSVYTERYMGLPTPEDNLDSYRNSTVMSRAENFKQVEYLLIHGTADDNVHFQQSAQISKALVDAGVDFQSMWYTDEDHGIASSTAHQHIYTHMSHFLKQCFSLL
As to the kind of experiment: Specificity of apstatin: dipeptidyl-peptidase IV. It counts as biochemical. The conditions noted are these: detergent extract of bovine lung; Gly-Pro-β-NA, pH 6.8, FLUO. How it is done: as §1

Sequence of prolyl oligopeptidase (A0ACI6PCU6 entry or part of it): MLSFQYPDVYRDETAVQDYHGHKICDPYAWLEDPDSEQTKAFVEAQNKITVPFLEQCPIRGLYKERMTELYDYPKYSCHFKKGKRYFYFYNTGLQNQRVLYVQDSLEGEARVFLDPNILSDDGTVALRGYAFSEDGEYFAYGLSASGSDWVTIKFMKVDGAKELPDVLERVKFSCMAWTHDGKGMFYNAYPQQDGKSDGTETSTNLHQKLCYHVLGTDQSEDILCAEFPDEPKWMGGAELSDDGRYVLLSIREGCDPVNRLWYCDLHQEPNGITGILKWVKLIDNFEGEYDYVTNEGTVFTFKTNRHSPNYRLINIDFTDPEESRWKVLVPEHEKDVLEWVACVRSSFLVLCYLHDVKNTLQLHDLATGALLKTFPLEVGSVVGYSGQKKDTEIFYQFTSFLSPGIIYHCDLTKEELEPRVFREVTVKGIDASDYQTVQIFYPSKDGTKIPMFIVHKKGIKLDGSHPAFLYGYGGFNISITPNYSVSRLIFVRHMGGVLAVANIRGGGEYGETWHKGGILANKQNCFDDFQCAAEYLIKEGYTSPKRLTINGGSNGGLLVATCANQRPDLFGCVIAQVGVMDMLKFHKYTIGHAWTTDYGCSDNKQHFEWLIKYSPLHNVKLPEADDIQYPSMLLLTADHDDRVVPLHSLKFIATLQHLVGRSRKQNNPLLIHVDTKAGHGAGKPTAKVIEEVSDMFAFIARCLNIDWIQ

Regarding `C[C@H](NC(=O)[C@@H]1CCCN1C(=O)[C@@H]1CCCN1C(=O)[C@@H](O)[C@H](N)Cc1ccccc1)C(N)=O` [apstatin, N-[(2S, 3R)-3-amino-2-hydroxy-4-phenylbutanoyl]-L-prolyl-L-prolyl-Lalaninamide], the IC50 at prolyl oligopeptidase was > 800 µM; in assay [1], 600 µM; in assay [2], > 800 µM; in assay [4], 1100 µM. For the same compound, the “dose at which Bk potentiation has been observed” value in assay [3] fell in the range of 0.08 to 0.8 mg/kg.

The values are drawn from patent publication US5656603A (Loyola University of Chicago, priority 1995, dated 1997).
